Measured values reported in the supplement of paper PMC10307832.

Key:
Assay in all cases: relative viability (nuclei count vs DMSO), 5 days (fraction); higher = more cells survive
AT9283 + Alpelisib = compound: O=C(Nc1c[nH]nc1-c1nc2ccc(CN3CCOCC3)cc2[nH]1)NC1CC1 [AT9283] + Cc1nc(NC(=O)N2CCC[C@H]2C(N)=O)sc1-c1ccnc(C(C)(C)C(F)(F)F)c1 [Alpelisib] (partner 2 µM)
Procedure, shortened: (§1)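 Lung cancer cell lines in 1536-well plates got either a single drug or a fixed anchor-drug dose together with five library-drug doses (not always all listed) in √10 steps, by pin tool, on the day after seeding. Nuclei were counted after 5 days, and relative viability is the treated-to-vehicle ratio of nuclei counts. Values are medians of duplicate plates.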

AT9283 + Foretinib = compound: O=C(Nc1c[nH]nc1-c1nc2ccc(CN3CCOCC3)cc2[nH]1)NC1CC1 [AT9283] + COc1cc2c(Oc3ccc(NC(=O)C4(C(=O)Nc5ccc(F)cc5)CC4)cc3F)ccnc2cc1OCCCN1CCOCC1 [Foretinib] (partner 0.25 µM)
Procedure, shortened: as §1

AT9283 + Dasatinib = compound: O=C(Nc1c[nH]nc1-c1nc2ccc(CN3CCOCC3)cc2[nH]1)NC1CC1 [AT9283] + Cc1nc(Nc2ncc(C(=O)Nc3c(C)cccc3Cl)s2)cc(N2CCN(CCO)CC2)n1 [Dasatinib] (partner 0.075 µM)
Procedure, shortened: as §1

Erlotinib + OSI-027 = compound: C#Cc1cccc(Nc2ncnc3cc(OCCOC)c(OCCOC)cc23)c1 [Erlotinib] + COc1cccc2cc(-c3nc([C@H]4CC[C@H](C(=O)O)CC4)n4ncnc(N)c34)[nH]c12 [OSI-027] (partner 0.5 µM)
Procedure, shortened: as §1

Erlotinib + Pemetrexed = compound: C#Cc1cccc(Nc2ncnc3cc(OCCOC)c(OCCOC)cc23)c1 [Erlotinib] + Nc1nc2[nH]cc(CCc3ccc(C(=O)N[C@@H](CCC(=O)O)C(=O)O)cc3)c2c(=O)[nH]1 [Pemetrexed] (partner 0.2 µM)
Procedure, shortened: as §1

Row | Cell Line | relative viability (AT9283 + Alpelisib; first compound 0.003 µM) | relative viability (AT9283 + Alpelisib; first compound 0.03 µM) | relative viability (AT9283 + Alpelisib; first compound 0.09487 µM) | relative viability (AT9283 + Alpelisib; first compound 0.3 µM) | relative viability (AT9283 + Foretinib; first compound 0.003 µM) | relative viability (AT9283 + Foretinib; first compound 0.03 µM) | relative viability (AT9283 + Foretinib; first compound 0.09487 µM) | relative viability (AT9283 + Foretinib; first compound 0.3 µM) | relative viability (AT9283 + Dasatinib; first compound 0.003 µM) | relative viability (AT9283 + Dasatinib; first compound 0.03 µM) | relative viability (AT9283 + Dasatinib; first compound 0.09487 µM) | relative viability (AT9283 + Dasatinib; first compound 0.3 µM) | relative viability (Erlotinib + OSI-027; first compound 0.02 µM) | relative viability (Erlotinib + OSI-027; first compound 0.2 µM) | relative viability (Erlotinib + OSI-027; first compound 0.6325 µM) | relative viability (Erlotinib + OSI-027; first compound 2 µM) | relative viability (Erlotinib + Pemetrexed; first compound 0.02 µM) | relative viability (Erlotinib + Pemetrexed; first compound 0.2 µM) | relative viability (Erlotinib + Pemetrexed; first compound 0.6325 µM) | relative viability (Erlotinib + Pemetrexed; first compound 2 µM)
1 | HCC-15 | 0.874 | 0.598 | 0.134 | 0.135 | 1.02 | 0.397 | 0.161 | 0.19 | 0.587 | 0.221 | 0.112 | 0.112 | 0.702 | 0.736 | 0.676 | 0.588 | 0.241 | 0.225 | 0.249 | 0.215
2 | HCC-78 | 0.286 | 0.275 | 0.165 | 0.18 | 0.5 | 0.485 | 0.331 | 0.305 | 0.291 | 0.322 | 0.201 | 0.216 | 0.333 | 0.359 | 0.379 | 0.281 | 0.883 | 0.912 | 0.892 | 0.899
3 | NCI-H2170 | 0.806 | 0.638 | 0.205 | 0.217 | 1.06 | 0.897 | 0.261 | 0.21 | 0.446 | 0.427 | 0.16 | 0.133 | 0.687 | 0.748 | 0.566 | 0.403 | 0.275 | 0.261 | 0.242 | 0.237
4 | NCI-H23 | 0.707 | 0.668 | 0.396 | 0.168 | 0.985 | 0.717 | 0.412 | 0.32 | 0.726 | 0.67 | 0.464 | 0.327 | 0.769 | 0.519 | 0.509 | 0.407 | 0.774 | 0.575 | 0.747 | 0.523
5 | NCI-H838 | 1.06 | 0.367 | 0.262 | 0.269 | 1.05 | 0.427 | 0.262 | 0.281 | 0.302 | 0.255 | 0.222 | 0.188 | 0.421 | 0.474 | 0.359 | 0.319 | 0.263 | 0.253 | 0.233 | 0.266
6 | NCI-H522 | – | – | – | – | – | – | – | – | 0.66 | 0.678 | 0.583 | 0.476 | 0.749 | 0.672 | 0.816 | 0.66 | 0.94 | 1.08 | 1.12 | 0.811
7 | NCI-H1650 | – | – | – | – | 1.2 | 0.985 | 0.46 | 0.327 | 0.347 | 0.301 | 0.216 | 0.171 | 0.533 | 0.515 | 0.472 | 0.33 | 0.337 | 0.324 | 0.352 | 0.298
8 | EMC-BAC-2 | 0.775 | 0.499 | 0.173 | 0.157 | 1.04 | 0.305 | 0.289 | 0.208 | 0.273 | 0.245 | 0.131 | 0.142 | 0.394 | 0.416 | 0.353 | 0.302 | 0.466 | 0.425 | 0.432 | 0.421
